Measurements taken from ChEMBL document CHEMBL3885881, “DrugMatrix”.

Species on record: Rattus norvegicus
Test: DrugMatrix - Regimen: Daily Repeat
Type: toxicity, organism-based, Sprague-Dawley
Set-up: regimen Daily Repeat, gender Male, age 6-8 weeks
Conditions: in vivo, po, route oral GAVAGE, vehicle .5 % CMC; for ABSOLUTE BASOPHIL / ABSOLUTE EOSINOPHIL / ABSOLUTE LYMPHOCYTE / ABSOLUTE MONOCYTE / ABSOLUTE SEGMENTED NEUTROPHIL / BASOPHIL / EOSINOPHIL / ERYTHROCYTE COUNT / HEMATOCRIT / HEMOGLOBIN / LEUKOCYTE COUNT / LYMPHOCYTE / MEAN CORPUSCULAR HEMOGLOBIN / MEAN CORPUSCULAR HEMOGLOBIN CONCENTRATION / MEAN CORPUSCULAR VOLUME / MONOCYTE / NEUTROPHIL / NUCLEATED RED BLOOD CELLS / PLATELET COUNT: tissue Blood; for ALANINE AMINOTRANSFERASE / ALBUMIN / ALKALINE PHOSPHATASE / ASPARTATE AMINOTRANSFERASE / BLOOD UREA NITROGEN / CARBON DIOXIDE / CHLORIDE / CHOLESTEROL / CREATINE PHOSPHOKINASE / CREATININE / GLUCOSE / LACTATE DEHYDROGENASE / LIPASE / PHOSPHORUS / POTASSIUM / SODIUM / TOTAL BILIRUBIN / TOTAL PROTEIN / URIC ACID: tissue Plasma
[1] = 30 mg/kg, 120 h, dose level Low, time 5 day
[2] = 2000 mg/kg, 72 h, dose level High, time 3 day
[3] = 2000 mg/kg, 120 h, dose level High, time 5 day

## CCOc1cc(N)c(Cl)cc1C(=O)NCC1CN(Cc2ccc(F)cc2)CCO1 (centres undefined) [MOSAPRIDE]
[1]
  ABSOLUTE BASOPHIL: 0 CELLS/uL
  ABSOLUTE EOSINOPHIL: 184 CELLS/uL
  ABSOLUTE LYMPHOCYTE: 14085.33 CELLS/uL
  ABSOLUTE MONOCYTE: 124 CELLS/uL
  ABSOLUTE SEGMENTED NEUTROPHIL: 940 CELLS/uL
  BASOPHIL: 0%
  EOSINOPHIL: 1.33%
  ERYTHROCYTE COUNT: 5.58 x10E6/uL
  HEMATOCRIT: 33.97%
  HEMOGLOBIN: 13.4 G/DL
  LEUKOCYTE COUNT: 15.33 x10E3/uL
  LYMPHOCYTE: 91.33%
  MEAN CORPUSCULAR HEMOGLOBIN: 24.07 pg
  MEAN CORPUSCULAR HEMOGLOBIN CONCENTRATION: 39.43 G/DL
  MEAN CORPUSCULAR VOLUME: 61 fL
  MONOCYTE: 1%
  NEUTROPHIL: 6.33%
  NUCLEATED RED BLOOD CELLS: 0 /100WBC
  PLATELET COUNT: 1230 x10E3/uL
  ALANINE AMINOTRANSFERASE: 47 u/L
  ALBUMIN: 4.27 G/DL
  ALKALINE PHOSPHATASE: 395.67 u/L
  ASPARTATE AMINOTRANSFERASE: 103 u/L
  BLOOD UREA NITROGEN: 14.67 mg/dL
  CARBON DIOXIDE: 21.33 mmol/L
  CHLORIDE: 104.33 MEQ/L
  CHOLESTEROL: 72.33 mg/dL
  CREATINE PHOSPHOKINASE: 763 u/L
  CREATININE: 0.22 mg/dL
  GLUCOSE: 150.33 mg/dL
  LACTATE DEHYDROGENASE: 650.33 u/L
  LIPASE: 9.67 u/L
  PHOSPHORUS: 11.1 mg/dL
  POTASSIUM: 5.84 MEQ/L
  SODIUM: 144.4 MEQ/L
  TOTAL BILIRUBIN: 0.23 mg/dL
  TOTAL PROTEIN: 5.97 G/DL
  URIC ACID: 1.73 mg/dL
[2]
  ABSOLUTE BASOPHIL: 0 CELLS/uL
  ABSOLUTE EOSINOPHIL: 82 CELLS/uL
  ABSOLUTE LYMPHOCYTE: 11383.33 CELLS/uL
  ABSOLUTE MONOCYTE: 248.67 CELLS/uL
  ABSOLUTE SEGMENTED NEUTROPHIL: 719.33 CELLS/uL
  BASOPHIL: 0%
  EOSINOPHIL: 0.67%
  ERYTHROCYTE COUNT: 6.66 x10E6/uL
  HEMATOCRIT: 42.47%
  HEMOGLOBIN: 16.67 G/DL
  LEUKOCYTE COUNT: 12.43 x10E3/uL
  LYMPHOCYTE: 91.33%
  MEAN CORPUSCULAR HEMOGLOBIN: 25.07 pg
  MEAN CORPUSCULAR HEMOGLOBIN CONCENTRATION: 39.27 G/DL
  MEAN CORPUSCULAR VOLUME: 63.83 fL
  MONOCYTE: 2%
  NEUTROPHIL: 6%
  NUCLEATED RED BLOOD CELLS: 0 /100WBC
  PLATELET COUNT: 1265 x10E3/uL
  ALANINE AMINOTRANSFERASE: 92.67 u/L
  ALBUMIN: 4.43 G/DL
  ALKALINE PHOSPHATASE: 485 u/L
  ASPARTATE AMINOTRANSFERASE: 204 u/L
  BLOOD UREA NITROGEN: 18 mg/dL
  CARBON DIOXIDE: 19 mmol/L
  CHLORIDE: 95 MEQ/L
  CHOLESTEROL: 234.67 mg/dL
  CREATINE PHOSPHOKINASE: 2551 u/L
  CREATININE: 0.29 mg/dL
  GLUCOSE: 119.67 mg/dL
  LACTATE DEHYDROGENASE: 1110.67 u/L
  LIPASE: 14.67 u/L
  PHOSPHORUS: 14.47 mg/dL
  POTASSIUM: 7.66 MEQ/L
  SODIUM: 141.13 MEQ/L
  TOTAL BILIRUBIN: 0.47 mg/dL
  TOTAL PROTEIN: 6.5 G/DL
  URIC ACID: 2.7 mg/dL
[3]
  ABSOLUTE BASOPHIL: 0 CELLS/uL
  ABSOLUTE EOSINOPHIL: 63.33 CELLS/uL
  ABSOLUTE LYMPHOCYTE: 17542.67 CELLS/uL
  ABSOLUTE MONOCYTE: 192.67 CELLS/uL
  ABSOLUTE SEGMENTED NEUTROPHIL: 1468 CELLS/uL
  BASOPHIL: 0%
  EOSINOPHIL: 0.33%
  ERYTHROCYTE COUNT: 6.35 x10E6/uL
  HEMATOCRIT: 38.03%
  HEMOGLOBIN: 14.87 G/DL
  LEUKOCYTE COUNT: 19.27 x10E3/uL
  LYMPHOCYTE: 91%
  MEAN CORPUSCULAR HEMOGLOBIN: 23.37 pg
  MEAN CORPUSCULAR HEMOGLOBIN CONCENTRATION: 39.1 G/DL
  MEAN CORPUSCULAR VOLUME: 59.8 fL
  MONOCYTE: 1%
  NEUTROPHIL: 7.67%
  NUCLEATED RED BLOOD CELLS: 0 /100WBC
  PLATELET COUNT: 1370.33 x10E3/uL
  ALANINE AMINOTRANSFERASE: 101.67 u/L
  ALBUMIN: 4.07 G/DL
  ALKALINE PHOSPHATASE: 465 u/L
  ASPARTATE AMINOTRANSFERASE: 89.67 u/L
  BLOOD UREA NITROGEN: 18.33 mg/dL
  CARBON DIOXIDE: 25.67 mmol/L
  CHLORIDE: 100 MEQ/L
  CHOLESTEROL: 227.67 mg/dL
  CREATINE PHOSPHOKINASE: 489.33 u/L
  CREATININE: 0.22 mg/dL
  GLUCOSE: 124.33 mg/dL
  LACTATE DEHYDROGENASE: 134 u/L
  LIPASE: 12.67 u/L
  PHOSPHORUS: 12.77 mg/dL
  POTASSIUM: 6.56 MEQ/L
  SODIUM: 145.37 MEQ/L
  TOTAL BILIRUBIN: 0.2 mg/dL
  TOTAL PROTEIN: 6.2 G/DL
  URIC ACID: 1.77 mg/dL
